The record followed here is article PMC2847917 (The Journal of General Physiology, 2010).

pEC50: −log10 of the molar value.

Assay [1] has as its target T1, P2X4 receptor (Mus musculus, UniProt Q9JJX6).
T1 sequence (Q9JJX6 1-388): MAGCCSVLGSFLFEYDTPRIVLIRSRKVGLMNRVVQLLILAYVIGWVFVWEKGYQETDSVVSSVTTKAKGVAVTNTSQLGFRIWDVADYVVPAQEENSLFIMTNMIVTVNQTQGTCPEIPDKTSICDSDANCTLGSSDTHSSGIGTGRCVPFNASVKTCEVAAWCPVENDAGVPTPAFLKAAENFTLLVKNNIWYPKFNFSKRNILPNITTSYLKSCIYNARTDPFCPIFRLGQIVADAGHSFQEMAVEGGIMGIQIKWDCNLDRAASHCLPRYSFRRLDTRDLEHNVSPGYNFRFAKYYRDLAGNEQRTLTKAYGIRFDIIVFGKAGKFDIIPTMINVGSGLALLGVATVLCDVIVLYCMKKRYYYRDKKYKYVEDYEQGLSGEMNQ
Description: cell-based.

The target of assay [2] is T1, P2X4 receptor. As to the kind of experiment: whole-cell voltage clamp, agonist-evoked inward current. Type of assay: cell-based.

For orientation: pEC50 means the negative decadic logarithm of the EC50, by convention in mol/L. Low readings indicate a high EC50, high ones a low EC50. `Nc1ncnc2c1ncn2[C@@H]1O[C@H](COP(=O)(O)OP(=O)(O)OP(=O)(O)O)[C@@H](O)[C@H]1O` [ATP] gave a pEC50 in assay [1] of 4.48.

As to `Nc1ncnc2c1ncn2[C@@H]1O[C@H](COP(=O)(O)CP(=O)(O)OP(=O)(O)O)[C@@H](O)[C@H]1O` [α,β-Methylene ATP], in assay [2], the “whole-cell voltage clamp, agonist-evoked inward current (partial agonist)” value was “α,β-Methylene ATP was a partial agonist”.
